Experimental data from patent US9688651B2, “Geranyl geranyl acetone analogs and uses thereof” (NYKEN Holding B.V., priority 2012, dated 2017).

Experiments:
HSP70 [1] = test: HSP70 protein boosting in HL-1 cardiomyocytes after mild heat shock (Western blot); type: cell-based, mouse; parameters: key to HSP boosting HL-1 cardiomyocytes Protein HSP70: 0 = no induction HSP levels; + = 2-10-fold induction; ++ = 10-30-fold induction; +++ = > 30-fold induction; details: for induction of mammalian HSP70 protein expression: HL-1, mild heat shock, 10 μM, 6 hours; for HSP boosting HL-1 cardiomyocytes Protein HSP70: mild heat shock 44°C 10 min, then compound 10 μM for 6 hours, Western blot
Procedure: HL-1 atrial myocytes, a cell line derived from adult mouse atria were obtained from Dr. William Claycomb (Louisiana State University, New Orleans, La., USA). The myocytes were maintained in Complete Claycomb Medium (JRH, UK) supplemented with 100 μM norepinephrine stock (consisting of 10 mM norepinephrine (Sigma, The Netherlands) dissolved in 0.3 mM L-ascorbic acid (Sigma)), 4 mM L-glutamine (Gibco, The Netherlands) and 10% FBS (Sigma). The myocytes were cultured in flasks coated with 0.02% gelatin (Sigma), in a 5% CO2 atmosphere at 37° C.
HL-1 cardiomyocytes were subjected to a mild heat shock of 44° C. for 10 minutes. After a recovery of 10 minutes (37 degrees 5% CO2), compounds were added in a final concentration of 10 μM (dissolved in DMSO, final concentration 0.1%). To control myocytes, 0.1% DMSO was added. After six hours the cells were lysed in RIPA buffer and used for Western blotting as described previously.^3, 10
(§1) Western-blot analysis was performed as described previously^3, 10. Equal amount of protein in SDS-PAGE sample buffer was sonicated before separation on 10% PAA-SDS gels. After transfer to nitrocellulose membranes (Stratagene, The Netherlands), membranes were incubated with primary antibodies against HSP25 (Stressgen, The Netherlands, SPA-801, 1:1000), HSP27 (Stressgen, SPA-800, 1:1000), HSP70 (Stressgen, SPA-810, 1:1000), GAPDH (Affinity Reagents, The Netherlands) or PARP (Santa Cruz, The Netherlands, sc-7150, 1:500). Horseradish peroxidase-conjugated anti-mouse or anti-rabbit (Santa-Cruz Biotechnology, The Netherlands) was used as secondary antibody. Signals were detected by the ECL-detection method (Amersham, The Netherlands) and quantified by densitometry using GeneTools software from Syngene (The Netherlands).
Compounds were also screened for HSP70 boosting effects. Hereto, HL-1 cardiomyocytes were first subjected to a mild heat shock which activates the Heat Shock Factor. After the mild heat shock, compound (10 μM) was added to the medium of HL-1 cardiomyocytes for 6 hours, followed by determination of the HSP70 amount.

HSP70 [2] = test: HSP70 mRNA (qPCR) in HL-1 cardiomyocytes after mild heat shock; type: cell-based, mouse; details: then compound 10 μM for 6 hours
Procedure: (§2) HL-1 cardiomyocytes were subjected to a mild heat shock of 44° C. for 10 minutes. After a recovery of 10 minutes (37 degrees 5% CO2), compounds were added in a final concentration of 10 μM (dissolved in DMSO, final concentration 0.1%). To control myocytes, 0.1% DMSO was added. After six hours the cells were lysed in RIPA buffer and used for Western blotting as described previously.^3, 10 Compounds were also screened for their ability to upregulate HSP gene expression. Hereto, HL-1 cardiomyocytes were first subjected to a mild heat shock which activates the Heat Shock Factor. After the mild heat shock, compound (10 μM) was added to the medium of HL-1 cardiomyocytes for 6 hours, followed by determination of HSP70, HSP25, HSP90 and HSP40 which are targets of the heat shock factor 1 (HSF1) transcription factor. In addition, we determined mRNA levels of the gene encoding the glucose-responsive protein 78 (Grp78) which is HSF1-independent.

HSP25 = HSP25 mRNA (qPCR) in HL-1 cardiomyocytes after mild heat shock; type: cell-based, mouse; details: then compound 10 μM for 6 hours
Procedure: as §2

HSP90 = HSP90 mRNA (qPCR) in HL-1 cardiomyocytes after mild heat shock; type: cell-based, mouse; details: then compound 10 μM for 6 hours
Procedure: as §2

HSP40 = HSP40 mRNA (qPCR) in HL-1 cardiomyocytes after mild heat shock; type: cell-based, mouse; details: then compound 10 μM for 6 hours
Procedure: as §2

[3] = system: glucose-responsive protein 78 (Grp78); test: Grp78 mRNA (qPCR, HSF1-independent) in HL-1 cardiomyocytes; type: cell-based, mouse; parameters: key to HSP boosting HL-1 cardiomyocytes mRNA (qPCR) Grp78 Not HSF1: 0 = no induction HSP levels; + = 2-10-fold induction; ++ = 10-30-fold induction; +++ = > 30-fold induction; details: for upregulation of Grp78 mRNA: HL-1, mild heat shock, 10 μM, 6 hours; for HSP boosting HL-1 cardiomyocytes mRNA (qPCR) Grp78 Not HSF1: mild heat shock, then compound 10 μM for 6 hours
Procedure: as §2

[4] = system: HSP70, HSP25, HSP90 and HSP40; test: Upregulation of HSP gene expression (HSF1 targets) in HL-1 cardiomyocytes; type: cell-based, mouse; details: HL-1, mild heat shock, 10 μM, 6 hours
Procedure: as §2

HSP70 [5] = test: Hsp70 induction in murine proximal tubule (MPT) cells (Western blot); type: cell-based; details: 40 μM, 5 hours, outperformed positive control GGA
Procedure: Murine proximal tubule (MPT) cells were isolated and cultured as described previously (Borkan et al. Heat stress ameliorates ATP depletion-induced sublethal injury in mouse proximal tubule cells. Am. J. Physiol. 1997; F347-55).
The MPT cells were exposed to 40 μM of compound for 5 hours, after which the cells were harvested in RIPA buffer followed by Western blotting.
For Western-blot analysis, equal amount of protein in SDS-PAGE sample buffer was separated on 10% PAA-SDS gels. After transfer to nitrocellulose membranes (Stratagene, USA), membranes were incubated with primary antibodies against HSP70 (Enzo C92F3A/StressGen SP810) or beta-actin (Sigma A541). Horseradish peroxidase-conjugated anti-mouse or anti-sheep (Jackson ImmunoRes) was used as secondary antibody. Signals were detected by the ECL-detection method (Amersham).

[6] = system: MCF-7 breast cancer cells; test: MCF-7 cell death, ratio death/living cells (trypan blue); type: cell-based, human; parameters: key to Cell Death MCF-7 cancer cells Death/living 100 μM: 0 = no dead cells; + = P < 0.05; ++ = P < 0.01; +++ = P < 0.001; details: 100 μM; 16-20 hours; trypan blue
Procedure: MCF-7 breast cancer cells were cultured in DMEM supplemented with 10% FCS. […] Ratio death and living cells was determined by using trypan blue staining of death cells. The cell pellets were lysed in RIPA buffer and used for Western blot analysis.
Since we observed that some compounds aggravate tachypacing-induced contractile dysfunction, we next investigated if these compounds can induce programmed cell death in a human breast cancer cell-line MCF-7. […] In total 28 compounds were tested for cell death. […] GGA was used as a control as well as non-treated MCF-7 cells. […] The findings indicate that GGA-like compounds which aggravate heart failure can induce programmed cell death in MCF-7 breast cancer cell-line.

HSP27 = HSP27 Western blot in MCF-7 cells; type: cell-based, human; parameters: key: + = P < 0.05; ++ = P < 0.01; +++ = P < 0.001; details: MCF-7 lysate, 16-20 hours
Procedure: (§3) MCF-7 breast cancer cells were cultured in DMEM supplemented with 10% FCS. Test compounds were added to the medium in a final concentration of […] for 16-20 hours. Ratio death and living cells was determined by using trypan blue staining of death cells. The cell pellets were lysed in RIPA buffer and used for Western blot analysis.
as §1

HSP70 [7] = test: HSP70 Western blot in MCF-7 cells; type: cell-based, human; parameters: key: + = P < 0.05; ++ = P < 0.01; +++ = P < 0.001; details: MCF-7 lysate, 16-20 hours
Procedure: as §3, §1

PARP = PARP cleavage in MCF-7 cells (Western blot); type: cell-based, human; parameters: key to Cell Death MCF-7 cancer cells PARP: 0 = no dead cells; + = P < 0.05; ++ = P < 0.01; +++ = P < 0.001; details: MCF-7 lysate, Western blot, 16-20 hours
Procedure: as §3, §1
Since we observed that some compounds aggravate tachypacing-induced contractile dysfunction, we next investigated if these compounds can induce programmed cell death in a human breast cancer cell-line MCF-7. Hereto, MCF-7 cells were incubated for 16 hours with 10 μM of a test compound after which the number of death and living cells was determined. In total 28 compounds were tested for cell death. […] GGA was used as a control as well as non-treated MCF-7 cells. […] The findings indicate that GGA-like compounds which aggravate heart failure can induce programmed cell death in MCF-7 breast cancer cell-line.

SMILES	induction of mammalian HSP70 protein expression (HSP70 [1])	HSP boosting HL-1 cardiomyocytes mRNA (qPCR) HSP 70 (HSP70 [2])	HSP boosting HL-1 cardiomyocytes mRNA (qPCR) HSP 25 (HSP25)	HSP boosting HL-1 cardiomyocytes mRNA (qPCR) HSP 90 (HSP90)	HSP boosting HL-1 cardiomyocytes mRNA (qPCR) HSP 40 (HSP40)	upregulation of Grp78 mRNA [3]	HSP boosting HL-1 cardiomyocytes mRNA (qPCR) Grp78 Not HSF1 [3]	induction of HSP gene expression [4]	induction of HSP70 expression in renal (MPT) cells (HSP70 [5])	HSP boosting HL-1 cardiomyocytes Protein HSP70 (HSP70 [1])	Cell Death MCF-7 cancer cells Death/living 100 μM [6]	Cell Death MCF-7 cancer cells HSP 27 (HSP27)	Cell Death MCF-7 cancer cells HSP 70 (HSP70 [7])	Cell Death MCF-7 cancer cells PARP (PARP)
CCOC(=O)C(Cc1ccccc1)C(=O)CC/C=C(\C)CCC=C(C)C (stereo not shown) [Compound 23]	potent inducers	++ (++ = 10-30-fold induction)	+ (+ = 2-10-fold induction)	+ (+ = 2-10-fold induction)	+ (+ = 2-10-fold induction)	no upregulation	0	strong inducers						
CC(C)=CCC/C(C)=C/CN1C(=O)CCC1=O [Compound 47]									strong inducers					
CCOC(=O)C(C)(C)C(=O)CC/C=C(\C)CCC=C(C)C [Compound 76, (E)-ethyl 2,2,7,11-tetramethyl-3-oxododeca-6,10-dienoate]	potent inducers	+++ (+++ = > 30-fold induction)	++ (++ = 10-30-fold induction)	++ (++ = 10-30-fold induction)	+ (+ = 2-10-fold induction)	no upregulation	0	strong inducers		+++ (+++ = > 30-fold induction)				
CC(=O)N[C@@H](C)C(=O)NC/C=C(\C)CCC=C(C)C [Compound 95]	potent inducers		+ (+ = 2-10-fold induction)	++ (++ = 10-30-fold induction)	+ (+ = 2-10-fold induction)		0		strong inducers	+++ (+++ = > 30-fold induction)				
CC(=O)OC/C=C(\C)CC/C=C(\C)COC1CCCCO1 (stereo not shown) [Compound 106]									strong inducers					
CCOC(=O)C(CC)C(=O)CC/C=C(\C)CCC=C(C)C (stereo not shown) [Compound 69]									strong inducers	0				
CC(C)=CCC/C(C)=C/CCc1cc(C)[nH]n1 [Compound 32]									strong inducers	+ (+ = 2-10-fold induction)	0	+ (+ = P < 0.05)	0	0
CCOC(=O)CC(=O)c1ccccc1O [Compound 60, Ethyl 3-(2-hydroxyphenyl)-3-oxopropanoate]	potent inducers					no upregulation		strong inducers						
CC(=O)CC/C=C(\C)CC/C=C(\C)CC/C=C(\C)CCC=C(C)C [GGA, (5E,9E,13E)-6,10,14,18-tetramethylnonadeca-5,9,13,17-tetraen-2-one, reference compound]		+ (+ = 2-10-fold induction)	++ (++ = 10-30-fold induction)	++ (++ = 10-30-fold induction)	+ (+ = 2-10-fold induction)		0			++ (++ = 10-30-fold induction)	0	+ (+ = P < 0.05)	0	0
CC(C)=CCC/C(C)=C/CNC(=O)CN(C)C [Compound 49]	potent inducers		+++ (+++ = > 30-fold induction)	+++ (+++ = > 30-fold induction)	+++ (+++ = > 30-fold induction)		0		strong inducers	+++ (+++ = > 30-fold induction)	0	0	0	0
